Source: patent US20160175292A1, “Antioxidants Having Aromatic Structures Reacting with Superoxide” (priority 2014, published 2016)
“Also recorded” adds a separate entry of the source.

Legend:
[1] = Superoxide scavenging assay using nitroblue tetrazolium (NBT) and KO2 (FIG. 11); assay type: biochemical; settings: NBT added 30 s, 60 s, 120 s, 300 s after KO2; diformazan at 560 nm
Description: The antioxidant and buffer/solvent was added to a cuvette, followed by the KO2 solution. After a set time (30 s, 60 s, 120 s, 300 s), NBT was added and the resulting mixture analyzed for the NBT diformazan (λmax=560 nm) by UV-Vis spectroscopy (FIG. 11).
In FIG. 11, PEG-HCCs and p-benzoquinone (pBQ) were also run for comparison.

[2] = test system: rat T cells; experiment: In vitro proliferation of ConA-stimulated rat T cells, micromolar concentration (FIG. 10); assay type: cell-based; settings: rat T cells stimulated with 1 μg/mL ConA
Description: In vitro analysis of EG3-NDI LNA20, EG8-PDI LNA30, and EG8-NDI, labeled LNA38 (which is Compound A in FIG. 4 where n=8) on T cell proliferation based on micromolar concentration was performed. 1 μg/mL ConA (mitogen) was used to stimulate rat T cells. […] Error bars represent variability between replicate wells. Unstimulated cells (left-hand bar) are shown as a negative control. Statistical analysis was performed between stimulated control cells without treatment (“Stimulated” bar) vs. various doses of the different compounds using a one-way ANOVA and Bonferonni post-hoc tests. *P<0.05, ***P<0.001, ****P<0.0001.

[3] = test system: T cell proliferation; experiment: In vitro T cell proliferation (FIG. 9); assay type: cell-based
Source text: This is similar to the activity observed with PEG-HCCs.

[4] = Cyclic voltammetry, reduction potential (FIG. 12); assay type: physicochemical; settings: 50 mM PBS pH 7.4, modified glassy carbon electrode, scan rate 100 mV/s
Description: FIG. 12 is a cyclic voltometry (“CV”) plot of 50 mM PBS (pH=7.4) bare glassy carbon (GC) working electrode and with modified perylene tetracarboxylic anhydride (PTCA) and HCC. (Scan rate: 100 mV/s).
The triethyleneglycol-PDIs (TEG-PDIs) and TEG-NDIs have been analyzed electrochemically and show similar reduction potentials to the HCCs and PEG-HCCs. Electrochemical investigations of HCCs have placed its reduction at −0.7 V vs. Ag/AgCl, as shown by its broad peak in Plot A below.
Accordingly, the triethyleneglycol-PDIs (TEG-PDIs) and TEG-NDIs have been analyzed electrochemically and shown to have similar reduction potentials to the HCCs and PEG-HCCs. Electrochemical investigations of HCCs have placed its reduction at —0.7 V vs. Ag/AgCl (Plot A). 3,4,9,10-Perylenediimide (PDI) derivatives also have redox potentials˜−0.6 V. 1,4,5,8-Naphthalenediimide (NDI) derivatives show discrete reduction steps in the same region (Plot B).

Row | Compound | superoxide consumption / reaction with superoxide (reduction of NBT) [1] | effect on T cell proliferation [2] | relative potency in inhibiting T cell proliferation [2] | concentrations showing inhibitory effects on T cell proliferation [3] | effect on T cell proliferation [3] | reduction potential [4] [V vs. Ag/AgCl]
1 | O=C1C=CC(=O)C=C1 [pBQ, p-benzoquinone, reference compound] | near complete consumption of superoxide; also recorded: nearly completely consumed | – | – | – | – | –
2 | COCCOCCOCCN1C(=O)c2ccc3c4c(ccc(c24)C1=O)C(=O)N(CCOCCOCCOC)C3=O [LNA20, bis-methoxytriethylene glycol naphthalene diimide] | reacts with superoxide; also recorded: showed activity | exhibit an inhibitory effect | most potent | above 10 μg/mL | exhibit an inhibitory effect | –
3 | O=C1OC(=O)c2ccc3c4ccc5c6c(ccc(c7ccc1c2c73)c64)C(=O)OC5=O [perylene tetracarboxylic anhydride] | – | – | – | – | – | −0.7
